Measured values: patent US8927531B2, “Indanyloxydihydrobenzofuranylacetic acids” (Boehringer Ingelheim International GmbH, priority 2013, dated 2015)

Each compound was assayed against human GPR40 receptor (Homo sapiens, UniProt O14842) (assay: IP1 accumulation measurements using the IPOne assay system in 1321N1 cells stably expressing human GPR40 receptor). Details: stimulation 1 h at 37° C.
Chain of human GPR40 receptor (O14842 whole entry): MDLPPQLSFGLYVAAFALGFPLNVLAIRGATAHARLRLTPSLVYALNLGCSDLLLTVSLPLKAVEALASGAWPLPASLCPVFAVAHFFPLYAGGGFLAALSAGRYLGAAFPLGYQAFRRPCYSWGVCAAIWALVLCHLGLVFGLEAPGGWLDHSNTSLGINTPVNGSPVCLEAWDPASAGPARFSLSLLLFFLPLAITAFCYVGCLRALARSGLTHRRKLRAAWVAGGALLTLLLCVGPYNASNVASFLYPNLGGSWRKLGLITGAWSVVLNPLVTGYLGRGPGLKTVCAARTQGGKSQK
Type: cell-based
Method: IP1 accumulation measurements using the IPOne assay system—1321N1 cells stably expressing human GPR40 receptor (Euroscreen, Belgium) are seeded 24 h before the assay in white 384-well plates in culture medium containing 10% FCS, 1% Na-Pyruvate and 400 μg/mL G418. IP1 is assayed according to the manufacturer's description (Cisbio Bioassays, France). In brief, the assay is started by substitution of the culture medium by stimulation buffer (Hepes 10 mM, CaCl2 1 mM, MgCl2 0.5 mM, KCl 4.2 mM, NaCl 146 mM, glucose 5.5 mM and LiCl 50 mM, pH 7.4). Cells are stimulated for 1 h at 37° C., 5% CO2 by addition of the compounds that are diluted in stimulation buffer containing LiCl. Assays are stopped by adding HTRF-conjugates (IP1-d2 and Anti-IP1 cryptate Tb) and lysis buffer, provided by the manufacturer. After an incubation time of 1 h at room temperature plates are measured using an EnVision™, Perkin Elmer. The obtained fluorescence ratios at 665/615 […] are then used to calculate the pEC50 values using Assay Explorer 3.3 Software (Accelrys, Inc.) by interpolation using an IP1 reference curve and subsequent sigmoidal curve fitting allowing for a variable hill slope.
With O=C(O)C[C@@H]1COc2cc(O[C@@H]3CCc4c3ccc(C(F)(F)F)c4CN3CCc4ccccc4C3)ccc21 [Example 29, {(S)-6-[(R)-4-(3,4-Dihydro-isoquinolin-2-ylmethyl)-5-trifluoromethyl-indan-1-yloxy]-2,3-dihydro-benzofuran-3-yl}-acetic acid] the EC50 was 3 nM. With O=C(O)C[C@@H]1COc2cc(O[C@@H]3CCc4c3ccc(C(F)(F)F)c4CN3CCc4ncsc4C3)ccc21 [Example 30, {(S)-6-[(R)-4-(6,7-Dihydro-thiazolo[5,4-c]pyridin-5-ylmethyl)-5-trifluoromethyl-indan-1-yloxy]-2,3-dihydro-benzofuran-3-yl}-acetic acid] the EC50 was 3 nM. Cn1cc2c(n1)CCN(Cc1c(C(F)(F)F)ccc3c1CC[C@H]3Oc1ccc3c(c1)OC[C@H]3CC(=O)O)C2 [Example 31, {(S)-6-[(R)-4-(2-Methyl-2,4,6,7-tetrahydro-pyrazolo[4,3-c]pyridin-5-ylmethyl)-5-trifluoromethyl-indan-1-yloxy]-2,3-dihydro-benzofuran-3-yl}-acetic acid] was tested, and the EC50 was 2 nM. O=C(O)C[C@@H]1COc2cc(O[C@@H]3CCc4c3ccc(C(F)(F)F)c4CN3CCc4ccsc4C3)ccc21 [Example 32, {(S)-6-[(R)-4-(4,7-Dihydro-thieno[2,3-c]pyridin-6-ylmethyl)-5-trifluoromethyl-indan-1-yloxy]-2,3-dihydro-benzofuran-3-yl}-acetic acid] gave an EC50 of 2 nM. For O=C(O)C[C@@H]1COc2cc(O[C@@H]3CCc4c3ccc(C(F)(F)F)c4CN3CCn4nccc4C3)ccc21 [Example 33, {(S)-6-[(R)-4-(6,7-Dihydro-pyrazolo[1,5-a]pyrazin-5-ylmethyl)-5-trifluoromethyl-indan-1-yloxy]-2,3-dihydro-benzofuran-3-yl}-acetic acid], the EC50 was 2 nM. O=C(O)C[C@@H]1COc2cc(O[C@@H]3CCc4c3ccc(C(F)(F)F)c4CN3CCc4nocc4C3)ccc21 [Example 34, {(S)-6-[(R)-4-(6,7-Dihydro-isoxazolo[4,3-c]pyridin-5-ylmethyl)-5-trifluoromethyl-indan-1-yloxy]-2,3-dihydro-benzofuran-3-yl}-acetic acid] showed an EC50 of 3 nM. For Cc1nc2c(o1)CCN(Cc1c(C(F)(F)F)ccc3c1CC[C@H]3Oc1ccc3c(c1)OC[C@H]3CC(=O)O)C2 [Example 35, {(S)-6-[(R)-4-(2-Methyl-6,7-dihydro-oxazolo[4,5-c]pyridin-5-ylmethyl)-5-trifluoromethyl-indan-1-yloxy]-2,3-dihydro-benzofuran-3-yl}-acetic acid], the EC50 was 3 nM.
